Assay [1] deals with A549 cells. Put plainly: Apoptosis morphology, AO/EB double staining. Conditions: A549, 2, 4 and 8 µM, 48 h. The class given is cell-based, human. As for the experimental part: To explore whether compound 7h could induce apoptosis in cancer cells, A549 cells were treated with different concentrations (0, 2, 4, and 8 µM) of 7h and then stained with AO/EB double staining. In the blank control group, normal cells were stained green with AO staining solution with intact nuclei.
A549 cells were inoculated into 24-well plates and attached via cell adhesion. Then, gradient concentrations (0, 2, 4, and 8 µM) of 7h were added and co-incubated for 48 h. The cells were cleaned with ice-cold PBS, stained with AO/EB, mixed, and then incubated in cells for 5 min in darkness at 25 °C. The apoptosis morphology of the cells in each group was observed and photographed using a laser confocal microscope (LSM710, Zeiss, Oberkochen, Germany).

Assay [2] deals with A549 cells. Put plainly: ROS content, H2DCFDA staining. The class given is cell-based, human. Conditions: A549, 2, 4 and 8 µM, 48 h, flow cytometry. As for the experimental part:
Reactive oxygen species (ROS) are secondary metabolites of cells and are closely linked to the regulation of multiple biological activities. Elevated intracellular ROS levels are thought to be a hallmark of apoptosis. To determine whether 7h could affect the ROS content in cancer cells, the A549 cells were treated with different concentrations (0, 2, 4, and 8 µM) of 7h and then stained with H2DCFDA.
Flow cytometry was used to detect changes in intracellular reactive oxygen species content, and the results are shown in Figure 5b,c.
A549 cells were inoculated into 24-well plates and attached via cell adhesion. Then, gradient concentrations (0, 2, 4, and 8 µM) of 7h were added and the cells were co-incubated for 48 h. The cells were cleaned with ice-cold PBS, stained with H2DCFDA, mixed, and incubated in cells for 20 min in darkness at 25 °C. The apoptosis morphology of the cells in each group was observed and photographed using a laser confocal microscope (LSM710, Zeiss, Oberkochen, Germany).
A549 cells were inoculated into 6-well plates and attached via cell adhesion. Then, gradient concentrations (0, 2, 4, and 8 µM) of 7h were added and the cells were co-incubated for 48 h. […] The experimental data were gathered using flow cytometry (FACS Calibur, BD, Milpitas, CA, USA) and analyzed using Flow Jo software. […]
For orientation: In flow cytometry, cells or beads pass a laser one at a time.

Assay [3] relates to L-02 cells. The assay can be described thus: MTT anti-proliferative assay, normal L-02 cells. Conditions: means ± SD of three experiments. The class given is cell-based. The protocol:
(§1) A series of novel enmein-type diterpenoid derivatives, 5a–m, were synthesized by introducing a side chain containing a carbamate moiety at the C-6 position of compound 4. The anticancer activities of 5a–m were tested against three human cancer cell lines and one human normal cell line by MTT assay.
(§2) Human non-small cell lung cancer cell lines (A549), human liver cancer cell lines (HepG2), human breast cancer cell lines (MCF-7), and human normal cell lines (L-02) were purchased from the cell bank of the Chinese Academy of Sciences. All cells were placed in RPMI-1640 medium (added 10% fetal bovine serum, […]) and cultured in an aseptic environment with 5% CO2 at 37 °C.
(§3) All derivatives were evaluated for their anti-proliferative activities against three cancer cell lines and one normal cell line by MTT assay. The cells in the logarithmic growth phase were inoculated into 96-well plates (3 × 10^3 cells/well) and incubated for 48 h in a sterile environment with 5% CO2 at 37 °C to make them attach via cell adhesion; then, the cells were co-incubated with target compounds for 48 h. After that, MTT solution (10 µL/well) was added to the cell culture medium to continue incubation for 4 h, following which the medium was replaced with DMSO (150 µL/well). The absorbance values at 490 nm were determined using an enzyme meter (Safire 2, Tecan, Männedorf, Switzerland) and further converted to half-inhibitory concentration values of these compounds.
Background: Tetrazolium dyes change colour on reduction, which living cells bring about.

Assay [4] has as its system A549 cells. The assay can be described thus: MTT anti-proliferative assay, A549. It is filed as cell-based, human. As for the experimental part: as §1, §2, §3
The subject of assay [5] is MCF-7 cells. The assay can be described thus: MTT anti-proliferative assay, MCF-7. The class given is cell-based. Conditions: Homo sapiens, MCF7, 48 h, means ± SD of three experiments. The protocol:
as §1, §2, §3

Assay [6] has as its system PI3K/Akt/mTOR pathway. The assay can be described thus: Western blot analysis in A549 cells. Conditions: A549, 2, 4 and 8 µM, 48 h. The class given is cell-based, human. As for the experimental part:
The PI3K/Akt/mTOR pathway is a critical intracellular signaling pathway during cancer development that regulates cellular processes such as proliferation, differentiation, apoptosis, and autophagy. Inhibiting the aberrant activation of the PI3K/Akt/mTOR signaling pathway is envisaged as a promising anticancer strategy. Based on KEGG analysis and researching the literature, the PI3K/Akt/mTOR signaling pathway is predicted to be one of the major pathways for 7h to exert its anticancer effects. Therefore, a western blot assay was performed to determine the expression of the main proteins, PI3K, p-PI3K, Akt, p-Akt, mTOR, and p-mTOR, to examine whether the anticancer ability of 7h against A549 cells is related to its modulation of the PI3K/Akt/mTOR pathway.
Western blot was used to determine the effect of 7h against the related protein expression in A549 cells. A549 cells were inoculated in 6-well plates and treated with a grdient concentrations (0, 2, 4, and 8 µM) of 7h for 48 h. The cells were collected, lysed in RIPA buffer, and heated at 100 °C for 10 min. The samples were processed via 10% sodium dodecyl sulfate-polyacrylamide gel electrophoresis (10% SDS-PAGE) and then transferred to a poly vinylidene difluoride (PVDE) membrane. […]
In general terms: Immunoblotting shows a protein as a band on a membrane.

Bounds are passed on as bounds.

The IC50 is the midpoint of a concentration-inhibition curve. Lower therefore signals greater potency.

Consider `C=C1C(=O)C23C(=O)OC45CCC(C)(C)C6C(OC(=O)CCC(=O)N7CCC(c8noc9cc(F)ccc89)CC7)OCC64C2CCC1C3O5` (single isomer, unassigned; ent-6) [Compound 7h, ent-6β,14α-Dihydroxy-(1,7–1,14)-epoxy-7,15-dioxo-6,20-hemiketal-6,7-seco-16-kaurene-6β-yl 4-(4-(6-fluorobenzo[d]isoxazol-3-yl)piperidin-1-yl)-4-oxobutanoate], for which the “apoptosis morphology (AO/EB)” value in assay [1] was “generated large amounts of apoptotic cells”. The “intracellular ROS content” value in assay [2] was “increased significantly in a dose-dependent manner”. Besides, the IC50 in assay [3] (Homo sapiens, L02, 48 h) was more than 100 µM; in assay [3] (human normal cells, 48 h) it was more than 50 µM; in assay [4] (Homo sapiens, A549, MTT, 48 h, means ± SD of three experiments) it was 2.16 ± 1.4 µM; in assay [5], 6.74 ± 1.94 µM. In assay [4] (A549 cells), the “fold better than parental compound 4 (A549 IC50)” value is 11.03 fold. Moreover, the “Akt protein phosphorylation expression” value in assay [6] is “showed an effect on Akt protein phosphorylation expression”. In addition, the “expression levels of p-PI3K and p-mTOR” value in assay [6] (dose-dependent, vs blank control) is given as “effectively reduce”.
